Measured values: paper PMC11335189, “Revealing molecular determinants governing mambalgin-3 pharmacology at acid-sensing ion channel 1 variants” (Cellular and Molecular Life Sciences: CMLS, 2024)
Positions of bridges follow the written chain, without caps; N, C: chain ends. No end group written: not given here.

Tests used:
rASIC1b = target: T1, rASIC1b (Rattus norvegicus, UniProt P55926); assay: TEVC in Xenopus laevis oocytes expressing rASIC1b; type: cell-based; details: for remaining activity at 0.3 µM: 300 nM peptide, conditioning pH 7.45, stimulating pH 6, read-out: I/Icontrol; for loss in potency relative to wild-type Ma-3 (estimated): peptides applied at pH 7.45, stimulated at pH 6
T1 construct: expressed in transfected cells; host or cells: Xenopus laevis oocytes (cRNA injection)
T1 sequence (P55926 1-559 isoform P55926-3): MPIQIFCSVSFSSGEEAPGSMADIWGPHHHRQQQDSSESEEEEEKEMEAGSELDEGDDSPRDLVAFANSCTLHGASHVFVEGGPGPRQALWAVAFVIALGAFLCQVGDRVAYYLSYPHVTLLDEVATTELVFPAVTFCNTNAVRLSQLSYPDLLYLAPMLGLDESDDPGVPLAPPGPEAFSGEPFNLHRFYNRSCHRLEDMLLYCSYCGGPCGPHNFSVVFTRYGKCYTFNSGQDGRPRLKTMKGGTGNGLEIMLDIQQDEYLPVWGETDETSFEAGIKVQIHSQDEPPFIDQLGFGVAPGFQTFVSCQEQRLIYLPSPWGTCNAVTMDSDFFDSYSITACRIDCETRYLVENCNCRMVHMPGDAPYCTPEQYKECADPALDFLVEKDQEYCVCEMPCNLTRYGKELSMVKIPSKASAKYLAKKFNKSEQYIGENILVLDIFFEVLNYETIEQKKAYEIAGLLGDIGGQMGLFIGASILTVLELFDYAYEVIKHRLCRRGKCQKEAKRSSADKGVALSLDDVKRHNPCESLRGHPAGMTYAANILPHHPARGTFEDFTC
Procedure: Two-electrode voltage-clamp (TEVC) experiments using Xenopus laevis oocytes were conducted as previously described. Briefly, oocytes were surgically removed from anaesthetised female frogs, then treated with collagenase (~ 1 mg/ml, Sigma type I) for 2 h under agitation at room temperature. cRNAs were synthesised using a mMessage mMachine T7 or SP6 transcription kit (Thermo Fisher Scientific Australia Pty Ltd, Scoresby, VIC, Australia) and injected into healthy stage V–VI oocytes at 0.2–20 ng per cell. Different amounts of RNA were used for different wild-type and mutant constructs, as well as to titrate expression levels to record over multiple days and maintaining consistent expression levels. Injected oocytes were incubated at 17 °C for 1–7 days in 50% Leibovitz’s L-15 medium (Gibco, Thermo Fisher Scientific Australia Pty Ltd, Scoresby, VIC, Australia), supplemented with 25 µg/mL gentamicin, 25 µg/mL streptomycin, and 2.5% fetal horse serum. Membrane currents were recorded 2–7 days after cRNA-injection under voltage-clamp at -60 mV (Axon Axoclamp 900 A, Molecular Devices, CA, USA) using two standard glass microelectrodes of 0.5–1 MΩ resistance when filled with 3 M KCl solution. Data were sampled at 2 kHz and filtered at 0.1 kHz using Clampex 10 software (Molecular Devices, CA, USA). A microperfusion system was used to allow fast extracellular solution exchange (bath volume = ~ 30 µL). All experiments were performed at room temperature (18–23 °C) in ND96 (96 mM NaCl, 2 mM KCl, 1.8 mM CaCl2, 2 mM MgCl2, 5 mM HEPES, pH 7.45). In solutions below pH 6.8, HEPES was replaced by MES. All solutions containing peptides contained 0.05% fatty acid free bovine serum albumin to decrease adsorptive losses of peptide to plasticware. For all channels tested, control current magnitudes between 500 and 9000 nA when tested using a conditioning pH of 7.45 and stimulating pH of 6 (except for the chimeras that were stimulated with pH 5) were used for data collection. Before recording any experiments, oocytes were stimulated multiple times with low pH to minimise and stabilise tachyphylaxis/desensitisation, which were then accounted for during analysis. Complete recovery of currents from Ma-3 induced modulation within 3 min of washout at all channels tested allowed for correction for tachyphylaxis/desensitisation during analyses.
Specific to this work, the standard protocol was for oocytes to be conditioned at pH 7.45 and channels stimulated every 60 s using a 5 s pH 5 or 6 application, unless stated otherwise. For all concentration-response data, peptides were applied for ~ 50 s between each low pH stimulus application. Activation curves were determined by conditioning oocytes at pH 8 (Fig. 2e − g; and Fig. 5a and b) or 7.45 (Fig. 6; and Supplementary Fig. 2d and c) for 55 s and applying low pH stimuli from 7.25 to 5.0 for 5 s. Steady-state desensitisation (SSD) was determined by applying conditioning solutions of pH values from 8 to 6 for 115 s prior to stimulation by a pH drop to 5 for 5 s. Ma-3 was only applied in the conditioning solution for activation and steady-state desensitisation curves in the presence of peptide. Control pH-dependence curves were determined in the absence of any Ma-3. When assessing the effect of Ma-3 on the rASIC1a: ASIC1b chimeras (C92 and C166; and for the comparative wild-type data), the conditioning pH was 7.45 and stimulating pH 5 (Fig. 3b). Specific details of the conditioning and stimulating pH are noted in each figure legend.
Data were analysed using pCLAMP-Clampfit software (Version 11, Molecular Devices, CA, USA) and GraphPad Prism 9.5 and 10.2.2 (GraphPad Software, San Diego, CA, USA). To obtain the Hill coefficient (nH) and half-maximal response (EC50, IC50, or pH50) the Hill equation was fitted to normalised concentration-response curves by using a non-linear fit to the data of a four-parameter logistic equation (“sigmoidal dose-response” in GraphPad Prism 9.5). […]

hASIC1a = target: T2, hASIC1a (Homo sapiens, UniProt P78348); assay: TEVC in Xenopus laevis oocytes expressing hASIC1a; type: cell-based; details: for loss of potency relative to wild-type Ma-3: conditioning pH 7.45, stimulating pH 6
T2 construct: expressed in transfected cells; host or cells: Xenopus laevis oocytes (cRNA injection)
T2 sequence (P78348 1-528): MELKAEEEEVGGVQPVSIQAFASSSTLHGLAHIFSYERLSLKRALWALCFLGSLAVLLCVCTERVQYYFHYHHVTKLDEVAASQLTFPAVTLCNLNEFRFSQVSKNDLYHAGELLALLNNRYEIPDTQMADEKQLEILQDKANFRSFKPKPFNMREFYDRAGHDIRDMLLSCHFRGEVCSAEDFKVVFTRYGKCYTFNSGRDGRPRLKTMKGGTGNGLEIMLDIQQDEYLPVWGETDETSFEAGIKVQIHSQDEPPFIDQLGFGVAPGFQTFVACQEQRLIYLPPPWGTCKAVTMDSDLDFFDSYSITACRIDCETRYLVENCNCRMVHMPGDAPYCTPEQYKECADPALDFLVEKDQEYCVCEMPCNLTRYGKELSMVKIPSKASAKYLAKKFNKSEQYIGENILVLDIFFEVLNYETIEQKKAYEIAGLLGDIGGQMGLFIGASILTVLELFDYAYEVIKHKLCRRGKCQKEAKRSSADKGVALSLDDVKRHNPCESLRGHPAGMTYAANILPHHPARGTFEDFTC
Procedure: Two-electrode voltage-clamp (TEVC) experiments using Xenopus laevis oocytes were conducted as previously described. Briefly, oocytes were surgically removed from anaesthetised female frogs, then treated with collagenase (~ 1 mg/ml, Sigma type I) for 2 h under agitation at room temperature. cRNAs were synthesised using a mMessage mMachine T7 or SP6 transcription kit (Thermo Fisher Scientific Australia Pty Ltd, Scoresby, VIC, Australia) and injected into healthy stage V–VI oocytes at 0.2–20 ng per cell. Different amounts of RNA were used for different wild-type and mutant constructs, as well as to titrate expression levels to record over multiple days and maintaining consistent expression levels. Injected oocytes were incubated at 17 °C for 1–7 days in 50% Leibovitz’s L-15 medium (Gibco, Thermo Fisher Scientific Australia Pty Ltd, Scoresby, VIC, Australia), supplemented with 25 µg/mL gentamicin, 25 µg/mL streptomycin, and 2.5% fetal horse serum. Membrane currents were recorded 2–7 days after cRNA-injection under voltage-clamp at -60 mV (Axon Axoclamp 900 A, Molecular Devices, CA, USA) using two standard glass microelectrodes of 0.5–1 MΩ resistance when filled with 3 M KCl solution. Data were sampled at 2 kHz and filtered at 0.1 kHz using Clampex 10 software (Molecular Devices, CA, USA). […]
Specific to this work, the standard protocol was for oocytes to be conditioned at pH 7.45 and channels stimulated every 60 s using a 5 s pH 5 or 6 application, unless stated otherwise. […] Activation curves were determined by conditioning oocytes at pH 8 (Fig. 2e − g; and Fig. 5a and b) or 7.45 (Fig. 6; and Supplementary Fig. 2d and c) for 55 s and applying low pH stimuli from 7.25 to 5.0 for 5 s. Steady-state desensitisation (SSD) was determined by applying conditioning solutions of pH values from 8 to 6 for 115 s prior to stimulation by a pH drop to 5 for 5 s. […] Control pH-dependence curves were determined in the absence of any Ma-3. […]
Data were analysed using pCLAMP-Clampfit software (Version 11, Molecular Devices, CA, USA) and GraphPad Prism 9.5 and 10.2.2 (GraphPad Software, San Diego, CA, USA). […]

Substance	shift in the activation curve (rASIC1b; 100 nM Ma-3, conditioning pH 8)	slope of activation curve in presence of Ma-3 (rASIC1b; 100 nM Ma-3, conditioning pH 8, mean ± SEM)	shift of the SSD curve towards alkaline values (rASIC1b; 100 nM Ma-3, stimulating pH 5) [pH units]	slope of SSD curve in presence of Ma-3 (rASIC1b; 100 nM Ma-3, stimulating pH 5, mean ± SEM)	pH50 of activation in presence of Ma-3 (rASIC1b; 100 nM Ma-3 in conditioning solution, conditioning pH 8, Hill fit, mean ± SEM, n = 5–8)	pH50 of steady-state desensitisation (SSD) in presence of Ma-3 (rASIC1b; 100 nM Ma-3 in conditioning solution, stimulating pH 5, Hill fit, mean ± SEM, n = 5–8)	t1/2 of onset of inhibition (rASIC1b; 300 nM Ma-3 (~ 10 times the IC50) applied at pH 7.45 for different durations, single exponential fit, n = 5) [s]	pH50 of activation in presence of Ma-3 (rASIC1b; 300 nM Ma-3, conditioning pH 7.45, Hill fit, n = 5–6)	time of Ma-3 application to maximal inhibition (rASIC1b; 300 nM Ma-3 at pH 7.45) [s]	remaining activity at 0.3 µM (rASIC1b; n = 5–8) [%]	t1/2 of recovery of currents from inhibition (washout) (rASIC1b; after 300 nM Ma-3, pH 7.45 conditioning, single exponential fit, n = 5) [s]	pH50 of activation in presence of Ma-3 (hASIC1a; 100 nM Ma-3 in the pH 8 conditioning solution, Hill fit, n = 5–6)	loss in potency relative to wild-type Ma-3 (estimated) (rASIC1b) [fold]	loss of potency relative to wild-type Ma-3 (hASIC1a)
H-SLKCYQHGKVVTCHRDMKFCYHNIGMPFRNLKLILQGCSSSCSETENNKCCSTDRCNK (disulfide 4-20, 13-38, 42-50, 51-56 (inferred)) [Ma-3, mambalgin-3]	no shift	3.69 ± 0.56	0.06	2.41 ± 0.51	6.03 ± 0.02	7.04 ± 0.04	3.8	6.17	≤ 45	40	12.8	5.86		
H-SLKCYQHGKVVTCHRDAKFCYHNIGMPFRNLKLILQGCSSSCSETENNKCCSTDRCNK (disulfide 4-20, 13-38, 42-50, 51-56 (inferred)) [M16A]										80			> 30	no change
H-SLKCYQHGAVVTCHRDMKFCYHNIGMPFRNLKLILQGCSSSCSETENNKCCSTDRCNK (disulfide 4-20, 13-38, 42-50, 51-56 (inferred)) [K8A]										91			> 30	~ 4 fold
